In article PMC11459959, “Discovery of new acetamide derivatives of 5-indole-1,3,4-oxadiazol-2-thiol as inhibitors of HIV-1 Tat-mediated viral transcription” (Antimicrobial Agents and Chemotherapy, 2024):
Where two headings read alike, the source gives them in different places.

Assays:
[1] = test system: Tat-mediated LTR transcription; assay: Dual-reporter assay, F-Luc (Tat-mediated LTR transcription) in bl-DTR cells; assay type: cell-based, HIV-1; conditions: for inhibitory effect on Tat (in words): F-Luc; for IC50: Human immunodeficiency virus 1, 24 h, read-out: IC50 of F-Luc (Tat)
Protocol: (§1) Fig 1 (A) (Top panel) Schematic representation of the primary compound screening using a dual-reporter system. […] (B). […] (Top graphs) bl-DTR cells (1 × 10^4) were treated with twofold serial dilutions of each compound before doxycycline (Dox) addition (final concentration, 50 ng/mL). After 24 h of treatment, the activities of firefly luciferase (F-Luc, red line) and Renilla luciferase (R-Luc, blue line) were determined using the Dual-Glo Luciferase assay system. (Bottom graphs) TZM-bl cells were treated with each indicated compound and subsequently infected with the HIV-1NL4-3 strain at a multiplicity of infection (MOI) of 1. At 48 h after infection, the viral infectivity (purple line) and cell viability (green line) were determined using the Bright-Glo luciferase assay kit and the PrestoBlue Cell Viability Reagent, respectively. […] (C). […] The targeted moieties for the SAR study are marked with dotted-circle lines.
(§2) The Tzm-bl-derived dual Tat reporter; TZM-bl/Tat/Rluc (bl-DTR) cells were established from TZM-bl cells using two Dox-inducible lentiviral expression cassettes cloned with Flag-tagged Tat86 and the R-Luc gene, as described in our previous study ([11]). TZM-bl, A3.01, J1.1, and J-Lat 6.3 cells as well as the HIV-1 molecular clone pNL4-3, pNL(AD8), ARV-resistant HIV-1 strains, and HIV-1NL43-IRES-eGFP (pBR43IeG-nef^+, gifted by Dr. Frank Kirchhoff) ([52]) were provided by the National Institute of Health HIV Reagent Program (NIH, Bethesda, MD, USA). HeLa (CCL-2) and 293T (CRL-3216) cell lines were purchased from the American Type Culture Collection (ATCC, Manassas, VA, USA). The bl-DTR, TZM-bl, HeLa, and 293T cells were cultured in Dulbecco’s modified Eagle’s medium supplemented with 1% penicillin–streptomycin and 10% (vol/vol) heat-inactivated fetal bovine serum (all from Gibco-BRL, Gaithersburg, MD, USA), and 1 µg/mL of puromycin and 200 µg/mL of zeocin were additionally supplemented for the bl-DTR cells. PBMCs were purchased from AllCells (Alameda, CA, USA) and cultured as previously described ([12]). The information on ARV-resistant HIV-1 strains was described in previous reports as follows: NNRTI-resistant 12241 and 12243 ([53]); NRTI-resistant 7396, 7406, and 7407 ([54]); INSTI-resistant 11847 and 11849 ([55], [56]); and PI-resistant 11800 and 11803 ([57]). Each molecular HIV-1 clone was transfected to 293T cells, as previously described ([58]), to obtain infectious HIV-1 particles. Virus-containing cell culture supernatants were collected 3 days after transfection, and filtered through a 0.45-µm membrane filter (Millipore Sigma, Burlington, MA, USA) to remove cell debris. The viral titration was performed as described previously ([59]) with some minor modifications. In brief, 1 × 10^4 TZM-bl cells seeded in 96-well plates were infected with 200 µL of virus-containing medium diluted serially twofold. The incubation was for 2 days and the experiment was performed in triplicate; the infection time minimized the virus spread ([59]). The titration of the infectious viral particles was performed with a ß-Gal staining assay using the ßeta-Galactosidase Staining Kit (Mirus Bio, Madison, WI, USA) following the manufacturer’s protocols. In brief, the infected cells were washed with phosphate-buffered saline (PBS) and fixed using a Cell Fixative Working solution. The cells were washed with PBS and stained using the Cell Staining Working Solution containing X-gal. The infected blue-colored cells were counted under a microscope (100× magnification). The infectious virus titer was determined as a mean value of blue-colored cells count × dilution factor and used for determining the multiplicity of infection (MOI) in each infection experiment.

HIV-1NL4-3 = assay: HIV-1 infectivity in TZM-bl cells (F-Luc); assay type: cell-based; conditions: for inhibitory effect on HIV-1 infection (in words) / SI (CC50/EC50): TZM-bl cells; for inhibitory effect on HIV-1 infection (in words): HIV-1NL4-3; for EC50: Human immunodeficiency virus 1, TZM-bl, 48 h, TZM-bl cells infected with HIV-1NL4-3 at MOI 1, 48 h, F-Luc, mean ± SD
Protocol: (§3) The TZM-bl cells (also referred to as JC53BL-13) expressing human CD4, CXCR4, and CCR5 carrying the F-Luc and lacZ genes downstream of the HIV-1 LTR promoter ([60]) were used to determine the inhibitory effect of the compounds on HIV-1 infection, as previously described ([11], [12], [61]). In brief, 1 × 10^4 cells were cultured in 96-well plates for 24 h and subsequently treated with compounds at the indicated concentrations. Without replacement of the culture medium, the cells were subsequently infected with the HIV-1NL4-3 wild-type or ARV-resistant HIV-1 strains at an MOI of 1 to determine the exact inhibitory effect of compounds on a single-round infection. After 48 h, the inhibitory effect of the compounds was determined using a Bright Glo luciferase assay kit (Promega) or β-Galactosidase Enzyme Assay kit (Promega). The infectivity data were presented as a percentage relative to the dimethyl sulfoxide (DMSO) control (vehicle). Cell viability was determined using the resazurin-based PrestoBlue Cell Viability Reagent (Thermo Fisher Scientific, Waltham, MA, USA) following the manufacturer’s instructions.

[2] = Cell viability of TZM-bl cells (PrestoBlue); assay type: cell-based; conditions: human
Protocol: as §3

[3] = test system: general cellular transcription/translation (R-Luc); assay: Dual-reporter assay, R-Luc in bl-DTR cells; assay type: cell-based; conditions: doxycycline, 24 h
Protocol: as §1, §2

[4] = test system: HIV-1NL4-3 IRES-eGFP-nef+; assay: eGFP-encoding HIV-1 infection of TZM-bl cells; assay type: cell-based; conditions: 9, 10, 13 1.5 μM, 20, 21, 22 4 μM, seliciclib 10 µM, triptolide 5 nM, DTG 2 nM, EFV 2 nM, 2 days
Protocol: Fig 4 (A) Comparison of the chemical structures between prominent derivatives (9, 10, and 13) and non-functional derivatives (20, 21 and 22). (B) bl-DTR cells were treated with serial dilutions of each compound upon Dox for 24 h. The activities of F-Luc and R-Luc were determined using the Dual-Glo -Luciferase assay system. (C) TZM-bl cells were infected with the HIV-1NL4-3 strain at an MOI of 1 upon treatment of compounds. At 48 h after infection, the viral infectivity and cell viability were determined as described above (Fig. 1). (D) TZM-bl cells were infected with HIV-1NL4-3 IRES-eGFP virus along with the compound treatment. Two days later, GFP-expressing cells were observed by fluorescence microscopy (100× magnification). […] At 48 h after infection, the β-gal activity indicating viral infectivity was determined using the β-gal Enzyme Assay kit. F-Luc activity and cell viability were determined as described above (Fig. 4C). (C and E) The dose-response curves show the relative activity compared with that of the DMSO vehicle (mean ± SD; n = 3).

Compound	inhibitory effect on Tat (in words) ([1]; bl-DTR cells)	inhibitory effect on HIV-1 infection (in words) (HIV-1NL4-3)	IC50 [1] [µM]	CC50 at 48 h [2] [µM]	Relative R-Luc activity at IC50 of F-Luc [3]	EC50 (HIV-1NL4-3; read-out: EC50) [µM]	SI (CC50/EC50) (HIV-1NL4-3)	inhibition of viral-expressed eGFP signal [4]	LTR activity increase induced by adding prostratin ([1]; bl-DTR cells, Dox, sustained in the presence of compounds 9 or 13)	EC50 (HIV-1NL4-3) [µM]
Cc1[nH]c2ccc(-c3nnc(SC(C)(C)C(=O)N4CCCCC4)o3)cc2c1C [Compound 12, 2-((5-(2,3-Dimethyl-1H-indol-5-yl)-1,3,4-oxadiazol-2-yl)thio)-2-methyl-1-(piperidin-1-yl)propan-1-one]	increased	increased	–	–	–	–	–	–	–	–
Cc1[nH]c2ccc(-c3nnc(SCC(=O)N4CCCC(C)C4)o3)cc2c1C (stereo not shown) [Compound 10, 2-((5-(2,3-Dimethyl-1H-indol-5-yl)-1,3,4-oxadiazol-2-yl)thio)-1-(3-methylpiperidin-1-yl)ethan-1-one]	–	–	1.1 ± 0.07	82.5 ± 6.41	>100	0.56 ± 0.05	147.27	remarkably inhibited	–	–
Cc1[nH]c2ccc(-c3nnc(S(=O)(=O)CC(=O)N4CCCC4)o3)cc2c1C [Compound 22, 2-((5-(2,3-Dimethyl-1H-indol-5-yl)-1,3,4-oxadiazol-2-yl)sulfonyl)-1-(pyrrolidin-1-yl)ethan-1-one]	–	–	–	–	–	–	–	did not	–	–
1-(Pyrrolidin-1-yl)-2-((5-(1,2,3-trimethyl-1H-indol-5-yl)-1,3,4-oxadiazol-2-yl)thio)ethan-1-one [Compound 19]	did not demonstrate any biological effect	did not demonstrate any biological effect	–	–	–	–	–	–	–	–
Cc1[nH]c2ccc(-c3nnc(SCC(=O)N4CCCCC4)n3C)cc2c1C [Compound 28, 2-((5-(2,3-Dimethyl-1H-indol-5-yl)-4-methyl-4H-1,2,4-triazol-3-yl)thio)-1-(piperidin-1-yl)ethan-1-one]	critical decrease of potency	critical decrease of potency	13.7 ± 0.53	36.8 ± 12.6	90	21.2 ± 1.47	1.74	–	–	–
Cc1[nH]c2ccc(-c3nnc(SC(C)C(=O)N4CCCCC4)o3)cc2c1C (stereo not shown) [Compound 11, 2-((5-(2,3-Dimethyl-1H-indol-5-yl)-1,3,4-oxadiazol-2-yl)thio)-1-(piperidin-1-yl)propan-1-one]	–	–	0.43 ± 0.03	27.1 ± 1.95	100	0.4 ± 0.05	67.85	–	–	–
2-((5-(2,3-Dimethyl-1H-indol-5-yl)-1,3,4-oxadiazol-2-yl)thio)-1-(pyrrolidin-1-yl)propan-1-one [Compound 15]	increased	increased	–	–	–	–	–	–	–	–
Cc1[nH]c2ccc(-c3nnc(SCCC(=O)O)o3)cc2c1C [Compound B, 3-((5-(2,3-Dimethyl-1H-indol-5-yl)-1,3,4-oxadiazol-2-yl)thio)propanoic acid]	–	–	2.29 ± 0.08	44.6 ± 5.68	>100	2.63 ± 0.34	16.97	–	–	–
Cc1[nH]c2ccc(-c3nnc(SC(C)C(=O)N4CCCCC4)n3CCc3ccccc3)cc2c1C (stereo not shown) [Compound 30, 2-((5-(2,3-Dimethyl-1H-indol-5-yl)-4-phenethyl-4H-1,2,4-triazol-3-yl)thio)-1-(piperidin-1-yl)propan-1-one]	–	–	1.74 ± 0.06	22.6 ± 0.47	100	2.01 ± 0.11	11.26	–	–	–
CC(=O)O[C@@]12C[C@@H](C)[C@@]3(O)[C@@H](C=C(CO)C[C@]4(O)C(=O)C(C)=C[C@@H]34)[C@@H]1C2(C)C [prostratin, reference compound]	–	–	–	–	–	–	–	–	~ 1.5 fold	–
Cc1[nH]c2ccc(-c3nnc(SCCN4CCCCC4)o3)cc2c1C [Compound 24, 2-(2,3-Dimethyl-1H-indol-5-yl)-5-((2-(piperidin-1-yl)ethyl)thio)-1,3,4-oxadiazole]	modest inhibitory effect	–	1.97 ± 0.03	40.3 ± 1.74	>100	3.02 ± 0.09	13.34	–	–	–
Cc1[nH]c2ccc(-c3nnc(SCC(=O)N4CCCC4)n3CCc3ccccc3)cc2c1C [Compound 31, 2-((5-(2,3-Dimethyl-1H-indol-5-yl)-4-phenethyl-4H-1,2,4-triazol-3-yl)thio)-1-(pyrrolidin-1-yl)ethan-1-one]	–	–	3.42 ± 0.12	55.3 ± 10.2	>100	5.89 ± 0.05	9.39	–	–	–
Cc1[nH]c2ccc(-c3nnc(SCCN4CCCC4)o3)cc2c1C [Compound 25, 2-(2,3-Dimethyl-1H-indol-5-yl)-5-((2-(pyrrolidin-1-yl)ethyl)thio)-1,3,4-oxadiazole]	no effect was observed	no effect was observed	–	–	–	–	–	–	–	–
Cc1[nH]c2ccc(-c3nnc(S)o3)cc2c1C [Compound 3b, 5-(2,3-Dimethyl-1H-indol-5-yl)-1,3,4-oxadiazole-2-thiol]	did not exhibit a substantial biological effect	did not exhibit a substantial biological effect	–	–	–	–	–	–	–	–
Cc1[nH]c2ccc(-c3nnc(SC(C)C(=O)N4CCCC4)o3)cc2c1C (stereo not shown) [Compound 14, 2-((5-(2,3-Dimethyl-1H-indol-5-yl)-1,3,4-oxadiazol-2-yl)thio)-1-(pyrrolidin-1-yl)propan-1-one]	–	–	3.82 ± 0.12	57.7 ± 6.01	>100	3.31 ± 0.28	17.44	–	–	–
O=C(O)CCSc1nnc(-c2cccc3ccccc23)o1 [Compound A, 3-((5-(Naphthalen-1-yl)-1,3,4-oxadiazol-2-yl)thio)propanoic acid]	–	–	4	–	–	–	–	–	–	4.19
